Test results reported in PMC10349806 (Nature Communications, 2023).
Values joined by “and” are separate entries in the source; they are usually repeats but may differ in a detail not shown here. Equal entries are not always repeated.

What was measured:
[1] = biological target: T1, PfCRT variant D310A (Plasmodium falciparum, UniProt Q9N623, A220S/D310A/I356T/K76T/M74I/N326S/N75E/Q271E/R371I); experiment: CQ uptake assay, oocytes expressing D310A; type: cell-based
T1 sequence (Q9N623 1-424 M74I/N75E/K76T/A220S/Q271E/D310A/N326S/I356T/R371I): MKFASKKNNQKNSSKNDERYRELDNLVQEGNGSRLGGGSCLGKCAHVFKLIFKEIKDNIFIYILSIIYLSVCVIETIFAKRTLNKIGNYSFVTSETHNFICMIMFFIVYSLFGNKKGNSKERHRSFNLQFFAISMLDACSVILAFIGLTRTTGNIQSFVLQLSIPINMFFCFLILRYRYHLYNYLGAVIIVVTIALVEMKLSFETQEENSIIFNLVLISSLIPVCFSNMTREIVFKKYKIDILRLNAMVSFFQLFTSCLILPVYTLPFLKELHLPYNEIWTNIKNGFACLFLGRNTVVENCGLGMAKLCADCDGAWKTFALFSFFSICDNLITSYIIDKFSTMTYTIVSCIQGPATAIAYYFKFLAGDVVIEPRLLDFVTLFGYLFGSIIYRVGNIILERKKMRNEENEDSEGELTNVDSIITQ
Procedure: (§1) Site-directed mutagenesis of PfCRT^Dd2 was performed as described using the megaprimer method with overlap extension[21],[54]. The primer pairs used are listed in Supplementary Table 6. Please note that a codon-optimized and oocyte-adapted version of PfCRT^Dd2 was used[22] (Supplementary Fig. 16). The resulting DNA fragment was cloned into the SP64T expression vector and verified by sequencing.
(§2) Oocytes were obtained as described previously. Briefly, adult (>2 years old) female X. laevis frogs (NASCO) were anesthetized in a cooled solution of ethyl 3-amino benzoate methanesulfonate (0.1%, w/v), followed by a surgical removal of parts of the ovary. The ovary lobes were carefully dissected and small pieces of oocytes were incubated in Ca^2+-free ND96 buffer (96 mM NaCl, 2 mM KCl, 1 mM MgCl2 buffered with 5 mM HEPES/NaOH, pH 7.5) supplemented with collagenase D (0.1%, w/v; Roche), BSA (0.5%, w/v), and 9 mm Na2HPO4 at 18 °C for 14-16 h while gentle shaking. After incubation, the oocytes were carefully washed several times with ND96 buffer (96 mM NaCl, 2 mM KCl, 1.8 mM CaCl2, 1 mM MgCl2 buffered with 5 mM HEPES/NaOH, pH 7.5) supplemented with 100 mg l^−1 gentamycin). Defolliculated and healthy-looking stage V-VI oocytes were manually selected for RNA microinjection. The RNA was generated as following: The codon-optimized sequences of PfCRT variants were cloned into the pSP64T expression vector. After vector linearization using the restriction endonucleases BamHI or SalI (New England Biolabs), transcription was performed using the in vitro SP6 mMessage mMachine Kit (Ambion)[34]. The obtained RNA was kept at −80 °C and diluted with nuclease-free water to a concentration of 0.6 μg μl^−1. Precision-bore glass capillary tubes (3.5-inch glass capillaries; Drummond Scientific Co.) were pulled on a vertical puller (P-87 Flaming/Brown micropipette puller, Sutter Instrument Co.), graduated, and placed on a microinjector (Nanoject II Auto-Nanoliter Injector, Drummond Scientific Co.). 50 nl of nuclease-free water alone (control oocytes) or 50 nl of 0.6 μg μl^−1 RNA were injected under stereomicroscopic control. Injected oocytes were incubated for 46–72 h at 18 °C with twice-daily buffer changes before usage in experiments.
(§3) Drug uptake assays were performed as described previously[21],[22],[24],[34]. […] The direction of radio-labeled drug transport is here from the mostly acidic extracellular solution (pH 4.5 or 6.0, as indicated) into the oocyte cytosol (pH ∼ 7.2), which corresponds to the efflux of drug from the acidic digestive vacuole (pH 5.2) into the parasite cytoplasm (pH 7.2). The topology of PfCRT in the oolemma is such that both the N- and C-terminus face the extracellular milieu[3],[22]. In the parasite, the N- and C-terminus face the lumen of the digestive vacuole. CQ uptake kinetics were performed by incubating oocytes in ND96 buffer adjusted to a pH of 4.5, 5.0, 5.5, or 6.0 and supplemented with 50 nM [^3H]CQ and one of 7 different CQ concentrations (10 µM, 50 µM, 100 µM, 200 µM, 300 µM, 400 µM, 500 µM CQ). The reaction was stopped at the 60 min time point, which is in the linear uptake range[22],[34] (Supplementary Fig. 17). For determination of the amount of drug uptake for each oocyte, the reaction medium was removed and the oocytes were washed three times with 2 ml of ice-cold ND96 buffer. Each oocyte was individually transferred to a scintillation vial containing 5% sodium dodecyl sulfate (200 μl) for lysis. The radioactivity of each sample was measured using a liquid scintillation analyzer Tri-Carb 4910 TR (PerkinElmer). Oocytes that were injected with water instead of RNA were analyzed in parallel, representing the uptake of a drug by diffusion and/or endogenous permeation pathways. The resulting value represents the “background“ level of drug accumulation in oocytes (in-depth discussion in[22]). […]

[2] = tested on: PfCRT variant E207S; experiment: CQ uptake assay, oocytes expressing E207S; type: cell-based, Plasmodium falciparum
Procedure: as §1, §2, §3

[3] = D310A, 50 µM CQ, 1 h, mean ± SEM
[4] = E207S, 50 µM CQ, 1 h, mean ± SEM

Structure (SMILES): CCN(CC)CCCC(C)Nc1ccnc2cc(Cl)ccc12 (stereo not drawn) [CQ, chloroquine]
- Activity at pH 4.5 [1, 3]: 0.96 ± 0.15 pmol h-1 oocyte-1
- Activity at pH 6.0 [1, 3]: 1.25 pmol h-1 oocyte-1 and 1.25 ± 0.18 pmol h-1 oocyte-1
- R-value ([1]; D310A, CQ transport at pH 4.5 / pH 6.0): 0.77 and 0.77 ± 0.07
- D310A transport activity pH 4.5 ([1]; pH 4.5, single replicates, Fig 1d left): 0.65 pmol oocyte-1 h-1 and 1.30 pmol oocyte-1 h-1 and 0.92 pmol oocyte-1 h-1
- D310A R-value ([1]; pH 4.5 vs pH 6.0, Fig 1d left): 0.79 and 0.92 and 0.61
- D310A transport activity pH 6.0 ([1]; pH 6.0, single replicates, Fig 1d left): 0.82 pmol oocyte-1 h-1 and 1.42 pmol oocyte-1 h-1 and 1.51 pmol oocyte-1 h-1
- Activity at pH 4.5 [2, 4]: 2.94 ± 0.21 pmol h-1 oocyte-1
- Activity at pH 6.0 [2, 4]: 3.07 ± 0.23 pmol h-1 oocyte-1
- R-value ([2]; E207S, CQ transport at pH 4.5 / pH 6.0): 0.96 ± 0.01
- E207S transport activity pH 4.5 ([2]; pH 4.5, individual replicates, Fig 6b): 3.45 pmol oocyte-1 h-1 and 2.79 pmol oocyte-1 h-1 and 2.59 pmol oocyte-1 h-1
- E207S transport activity pH 6.0 ([2]; pH 6.0, individual replicates, Fig 6b): 3.59 pmol oocyte-1 h-1 and 2.98 pmol oocyte-1 h-1 and 2.63 pmol oocyte-1 h-1
- E207S R-value ([2]; ratio of activity pH 4.5 / pH 6.0): 0.96 and 0.94 and 0.98
